Laboratory results: US10472635B2, “Methods of treating brain edema” (priority 2015, dated 2019)
Read-outs that look alike come from different tables or passages of the source.

Key:
[1] = tested on: Pannexins, Connexins; details: cited from earlier work
[2] = tested on: cortical neurons in brain slices; assay: Neuronal swelling imaging assay in brain slices (cross sectional area of CoroNa-stained soma, two-photon); format: cell-based, rat; details: for magnitude of neuronal swelling: veratridine-induced, blockers present, without vs with pre-applied picrotoxin (100 μM)
[3] = tested on: rat hippocampal slices; assay: LDH release cell death assay in hippocampal slices; format: cell-based; details: for effect on veratridine-induced cell death (LDH release): 50 μM veratridine
[4] = tested on: voltage-dependent Cl^− current in layer 4 cortical neurons; assay: Whole-cell voltage clamp of depolarization-activated Cl- current; format: cell-based, rat; details: depolarization to −20 mV or greater; cocktail of channel blockers; GlyH-101 by dialysis
Description: Electrophysiology: Whole-cell recordings were performed in the presence of antagonists of GABAA (10 μM picrotoxin), AMPA/kainite (10 μM 6-cyano-7-nitoquinoxaline-2,3-dione—CNQX), and NMDA (2R-amino-5-phosphonovaleric acid—APV) receptors. 60 μM cadmium, 50 μM nickel and 100 μM 4AP (4-aminopyridine) were used to block voltage-gated calcium channels and A-type potassium channels. Whole-cell voltage-clamp recordings from cortical neurons were carried out at room temperature while the recording chamber was perfused with ACSF at 1-1.5 ml min-1. Recordings were made using a MultiClamp 700B amplifier controlled by Clampex 10.2 via a Digidata 1440A data acquisition system with 3-5M ? glass electrodes. The pipette solution containing (in m ? ): 108 CsCl, 8 TEA-Cl, 8 NaGluc, 1 CsEGTA, 4 K-ATP, 0.3 Na-GTP, 10 Hepes, 2MgCl2 (pH 7.2 with CsOH, 286 mosmol 1-1). Normal ACSF contained (in mM): 126 NaCl, 26 NaHCO3, 10 glucose, 2 MgCl2, 1.25 NaH2PO4, 2.5 KCl, 2.0 CaCl2 (pH 7.25, 310 mosmol 1-1). NaCl was replaced with 126 mM Na-isethionate in the low-chloride ACSF. Recordings where the series resistance varied more than 10% were rejected. Data were analyzed with Clampfit 10.0.
The opening of Na^+ permeable channels causes both [Na^+]i accumulation and neuronal depolarization. […] However progressive accumulation of extracellular K^+ could lead to further depolarization of the membrane. […]

[5] = biological target: CLC-2 (Homo sapiens, UniProt P51788); details: cited from earlier work
Sequence of CLC-2 (P51788 whole entry): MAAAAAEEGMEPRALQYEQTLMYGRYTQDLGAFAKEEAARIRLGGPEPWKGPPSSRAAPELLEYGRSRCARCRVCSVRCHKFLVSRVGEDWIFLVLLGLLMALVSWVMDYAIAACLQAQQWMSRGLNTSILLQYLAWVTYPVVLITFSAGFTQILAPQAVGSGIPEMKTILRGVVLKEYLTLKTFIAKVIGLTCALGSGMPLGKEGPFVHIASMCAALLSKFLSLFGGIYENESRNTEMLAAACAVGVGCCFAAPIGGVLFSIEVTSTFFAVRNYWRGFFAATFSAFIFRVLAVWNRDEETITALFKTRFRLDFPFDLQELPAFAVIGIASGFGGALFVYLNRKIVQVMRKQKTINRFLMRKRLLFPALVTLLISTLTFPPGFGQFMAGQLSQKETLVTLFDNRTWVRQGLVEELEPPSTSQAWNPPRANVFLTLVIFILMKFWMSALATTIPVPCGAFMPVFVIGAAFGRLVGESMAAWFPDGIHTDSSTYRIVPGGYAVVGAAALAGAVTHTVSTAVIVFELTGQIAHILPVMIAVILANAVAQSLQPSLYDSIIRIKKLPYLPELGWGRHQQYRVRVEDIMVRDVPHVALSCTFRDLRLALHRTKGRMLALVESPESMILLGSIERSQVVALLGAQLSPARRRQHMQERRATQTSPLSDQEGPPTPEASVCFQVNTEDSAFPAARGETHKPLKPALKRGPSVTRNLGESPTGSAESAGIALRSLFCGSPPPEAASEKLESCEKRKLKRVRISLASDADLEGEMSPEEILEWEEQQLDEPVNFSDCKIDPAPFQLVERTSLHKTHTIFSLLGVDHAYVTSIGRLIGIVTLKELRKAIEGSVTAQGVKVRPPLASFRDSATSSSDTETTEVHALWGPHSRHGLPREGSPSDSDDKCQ

[6] = tested on: neuronal [Na^+]i in brain slices; assay: Neuronal [Na+]i by CoroNa Green fluorescence / two-photon FLIM; format: cell-based, rat
[7] = tested on: VRAC; details: cited from earlier work
[8] = tested on: CaCC; details: cited from earlier work
[9] = tested on: Maxi-Anion Channel; details: cited from earlier work
[10] = biological target: T1, NKCC1 (Homo sapiens, UniProt P55011); details: cited from earlier work
T1 sequence (P55011 1-1212): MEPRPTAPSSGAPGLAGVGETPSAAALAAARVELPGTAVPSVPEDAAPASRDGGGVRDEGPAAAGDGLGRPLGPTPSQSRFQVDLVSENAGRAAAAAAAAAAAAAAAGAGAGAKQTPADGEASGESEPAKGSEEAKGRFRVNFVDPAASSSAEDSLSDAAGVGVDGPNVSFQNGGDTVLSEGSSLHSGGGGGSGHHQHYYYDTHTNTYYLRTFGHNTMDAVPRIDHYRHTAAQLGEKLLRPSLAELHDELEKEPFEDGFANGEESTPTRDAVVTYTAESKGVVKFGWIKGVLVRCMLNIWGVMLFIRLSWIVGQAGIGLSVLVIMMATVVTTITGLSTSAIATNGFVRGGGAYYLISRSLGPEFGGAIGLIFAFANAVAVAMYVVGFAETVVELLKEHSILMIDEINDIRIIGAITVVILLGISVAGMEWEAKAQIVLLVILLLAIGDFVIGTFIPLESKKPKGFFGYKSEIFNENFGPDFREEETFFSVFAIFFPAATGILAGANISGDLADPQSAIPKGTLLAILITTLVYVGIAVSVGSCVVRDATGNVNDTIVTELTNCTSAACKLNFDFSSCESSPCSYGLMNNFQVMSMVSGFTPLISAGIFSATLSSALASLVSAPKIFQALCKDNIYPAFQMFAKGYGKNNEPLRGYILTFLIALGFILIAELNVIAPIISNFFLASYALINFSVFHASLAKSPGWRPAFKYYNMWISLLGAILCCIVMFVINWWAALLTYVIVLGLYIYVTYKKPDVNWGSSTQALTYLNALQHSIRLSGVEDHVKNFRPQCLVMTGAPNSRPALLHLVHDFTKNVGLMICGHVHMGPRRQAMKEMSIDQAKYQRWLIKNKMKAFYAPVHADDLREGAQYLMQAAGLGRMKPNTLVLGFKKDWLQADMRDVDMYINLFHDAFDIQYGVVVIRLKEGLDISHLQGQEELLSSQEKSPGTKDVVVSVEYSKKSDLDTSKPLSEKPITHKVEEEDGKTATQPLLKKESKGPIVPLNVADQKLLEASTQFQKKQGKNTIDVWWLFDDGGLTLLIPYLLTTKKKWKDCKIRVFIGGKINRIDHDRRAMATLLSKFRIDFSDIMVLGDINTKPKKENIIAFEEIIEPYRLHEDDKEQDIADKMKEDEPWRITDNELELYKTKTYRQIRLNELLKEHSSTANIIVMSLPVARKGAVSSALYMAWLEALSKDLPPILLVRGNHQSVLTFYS

[11] = biological target: T2, KCC2 (Homo sapiens, UniProt Q9H2X9); details: cited from earlier work
T2 sequence (Q9H2X9 1-1139): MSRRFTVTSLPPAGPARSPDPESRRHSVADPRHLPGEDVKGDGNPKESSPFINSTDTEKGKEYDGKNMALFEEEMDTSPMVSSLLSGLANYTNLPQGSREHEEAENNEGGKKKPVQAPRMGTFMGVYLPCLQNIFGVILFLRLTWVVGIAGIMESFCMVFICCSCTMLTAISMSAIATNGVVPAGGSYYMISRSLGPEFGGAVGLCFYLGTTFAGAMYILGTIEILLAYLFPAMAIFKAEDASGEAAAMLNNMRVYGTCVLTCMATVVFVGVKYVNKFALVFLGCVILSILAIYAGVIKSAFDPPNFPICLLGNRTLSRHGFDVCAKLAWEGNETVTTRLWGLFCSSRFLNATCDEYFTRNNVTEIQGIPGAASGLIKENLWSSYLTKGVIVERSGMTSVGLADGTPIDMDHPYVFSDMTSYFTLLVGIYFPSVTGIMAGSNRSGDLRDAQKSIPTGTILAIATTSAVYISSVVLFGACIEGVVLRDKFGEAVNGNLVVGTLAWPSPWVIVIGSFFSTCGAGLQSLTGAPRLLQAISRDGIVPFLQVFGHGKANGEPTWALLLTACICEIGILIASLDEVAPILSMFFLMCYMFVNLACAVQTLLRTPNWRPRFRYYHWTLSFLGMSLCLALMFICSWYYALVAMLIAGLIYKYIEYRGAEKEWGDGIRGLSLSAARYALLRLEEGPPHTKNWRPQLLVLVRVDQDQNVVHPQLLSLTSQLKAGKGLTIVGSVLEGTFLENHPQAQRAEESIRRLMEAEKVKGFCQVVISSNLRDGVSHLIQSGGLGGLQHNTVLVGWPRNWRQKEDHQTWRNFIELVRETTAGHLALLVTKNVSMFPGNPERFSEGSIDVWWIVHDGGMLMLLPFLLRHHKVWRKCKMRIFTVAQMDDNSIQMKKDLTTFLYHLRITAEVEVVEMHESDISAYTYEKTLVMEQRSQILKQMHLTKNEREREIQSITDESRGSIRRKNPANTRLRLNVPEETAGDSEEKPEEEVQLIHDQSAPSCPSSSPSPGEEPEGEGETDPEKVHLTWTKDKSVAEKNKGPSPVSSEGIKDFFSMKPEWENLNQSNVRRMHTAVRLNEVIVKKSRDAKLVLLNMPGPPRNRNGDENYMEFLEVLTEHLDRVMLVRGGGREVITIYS

[12] = 22-24 °C, antagonist bath applied and in puffing pipette, DIDS 250 μM, NPPB 200 μM, TTX 1 μM
[13] = pressure ejection, Cd2+, CNQX, picrotoxin present, d-APV with veratridine, TTX with NMDA

## CC1(C)[C@@H](OC(=O)CCC(=O)O)CC[C@]2(C)[C@H]3C(=O)C=C4[C@@H]5C[C@@](C)(C(=O)O)CC[C@]5(C)CC[C@@]4(C)[C@]3(C)CC[C@@H]12 [CBX, carbenoxelone]
[1]
  concentration (antagonist sensitivity of channel/transporter): 100 µM

## O=C(CNc1ccc2ccccc2c1)N/N=C/c1cc(Br)c(O)c(Br)c1O [GlyH-101]
[2]; [12]
  effect on veratridine-induced neuronal swelling: profoundly inhibited
[3]
  effect on veratridine-induced cell death (LDH release): profoundly inhibited
[4]
  effect on non-inactivating Cl- current elicited by depolarization: inhibit

## [Zn] [Zinc]
[5]
  concentration (antagonist sensitivity of channel/transporter): 100 µM

## N[C@H](CCCP(=O)(O)O)C(=O)O [d-APV, 2R-amino-5-phosphonovaleric acid]
[2]; DIDS 250 μM, 500 μM, 1 mM, d-APV 100 μM
  effect on NMDA-induced neuronal swelling: blocked
[6]; CoroNa signal, d-APV 100 μM
  effect on NMDA-induced [Na+]i increase: blocked

## O=C(O)c1cc([N+](=O)[O-])ccc1NCCCc1ccccc1 [NPPB]
[2]; [12]
  effect on veratridine-induced neuronal swelling: no protection
[3]
  effect on veratridine-induced cell death (LDH release): no effect
[3]; NMDA in Ca2+ free extracellular solution
  effect on NMDA-induced cell death (LDH release), Ca2+-independent: blocked by DIDS but not NPPB
[7]
  concentration (antagonist sensitivity of channel/transporter): 40 to 100 µM
[8]
  concentration (antagonist sensitivity of channel/transporter): 100 µM
[9]
  concentration (antagonist sensitivity of channel/transporter): 100 µM

## O=C(O)c1cccnc1Nc1cccc(C(F)(F)F)c1 [NFA, niflumic acid]
[8]
  concentration (antagonist sensitivity of channel/transporter): 50 to 100 µM

## CN[C@H](CC(=O)O)C(=O)O [NMDA, N-Methyl-D-aspartic acid]
[2]; extracellular Ca2+ free solution (0 mM Ca2+, 2 mM EGTA), TTX, Cd2+, CNQX, picrotoxin present
  neuronal cross sectional area after NMDAR activation: 161.60±10.55 % of baseline
[2]; extracellular Na+ replaced with NMDG (152 mM to 26 mM), normal Ca2+
  neuronal cross sectional area after NMDAR activation: 86.7 % of baseline
[2]; [13]
  change in neuronal cell volume on application: increase in neuronal cell volume
[6]; [13]
  change in neuronal [Na+]i on application: significant increase
[3]; 15 min application, LDH after 90 min, veratridine 50 μM, NMDA 100 μM in 0 mM Ca2+, 2 mM EGTA, CNQX, picrotoxin, Cd2+ present
  LDH release (cell death) on application: rapid and significant increase

## NC1=N[C@H](O)[C@H]2[C@H]3O[C@]4(O)O[C@@H]([C@@H](O)[C@@]2(N1)[C@@H]4O)[C@]3(O)CO [TTX, Tetrodotoxin]
[2]
  effect on veratridine-induced neuronal swelling: blocked
[6]
  effect on veratridine-induced [Na+]i increase: blocked

## COc1ccc(C(=O)O[C@H]2CC[C@@]3(C)[C@@H]4CC[C@H]5[C@]6(O)C[C@H](O)[C@@]7(O)[C@@H](CN8C[C@@H](C)CC[C@H]8[C@@]7(C)O)[C@]6(O)C[C@@]53O[C@]24O)cc1OC [veratridine]
[2]
  magnitude of neuronal swelling: 161.7%
[6]; throughout veratridine application
  [Na+]i (calibrated value, CoroNa FLIM): approximately 94.46±2.14 mM

## CCCCNc1cc(C(=O)O)cc(S(N)(=O)=O)c1Oc1ccccc1 [Bumetanide, bumetanide]
[10]
  Ki: ~0.1 µM
[11]
  Ki: 25 to 50 µM

## picrotoxin
[2]
  magnitude of neuronal swelling: 146.9%

## [Gd+3] [Gd^3+]
[9]
  concentration (antagonist sensitivity of channel/transporter): 30 to 50 µM
